Experimental findings from publication PMC4376353 (Angewandte Chemie (International ed. in English), 2015) are described below.

Assay [1] concerns the target T1, LanGT2 (Streptomyces cyanogenus, UniProt Q9ZGC0).
T1 sequence (Q9ZGC0 1-373): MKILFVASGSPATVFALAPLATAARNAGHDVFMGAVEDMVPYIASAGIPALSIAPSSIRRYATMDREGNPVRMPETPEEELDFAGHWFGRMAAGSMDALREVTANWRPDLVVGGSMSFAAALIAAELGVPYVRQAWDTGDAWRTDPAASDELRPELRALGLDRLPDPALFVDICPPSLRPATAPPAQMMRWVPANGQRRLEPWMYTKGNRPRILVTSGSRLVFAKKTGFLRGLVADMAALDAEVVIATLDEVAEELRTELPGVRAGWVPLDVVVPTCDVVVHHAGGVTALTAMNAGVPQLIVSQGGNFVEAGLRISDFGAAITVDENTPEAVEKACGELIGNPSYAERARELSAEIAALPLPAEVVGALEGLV
In words: X-ray crystal structure. The assay is classed as binding. The settings on record: nucleotide-sugar site; TDP-olivose had broken down, product TDP bound.

Assay [2] has as its target T1, LanGT2. In words: X-ray crystal structure. Type of assay: binding. The settings on record: non-hydrolyzable substrate analogue; nucleotide-sugar site; 1.85 Å.

Regarding `Cc1cn([C@H]2C[C@H](O)[C@@H](COP(=O)(O)OP(=O)(O)O)O2)c(=O)[nH]c1=O` [TDP], in assay [1], the “X-ray crystal structure (crystals treated with TDP-olivose)” value was “thus resulting in structures that invariably only had the product TDP bound”.
For `Cc1cn([C@H]2C[C@H](O)[C@@H](COP(=O)(O)OP(=O)(O)O[C@@H]3C[C@@H](O)[C@H](O)[C@@H](C)C3)O2)c(=O)[nH]c1=O` [compound 8, TDP-carba-D-olivose], the “X-ray crystal structure (crystal soaking)” value in assay [2] is on record as “LanGT2 crystals were soaked with the synthetic TDP-carba-D-olivose (TcO)”.
